# Source: EP2785358B1, “INSULIN-MIMETICS AS THERAPEUTIC ADJUNCTS FOR BONE REGENERATION” (priority 2011, dated 2013)
# Values joined by “and” are separate entries in the source; they are usually repeats but may differ in a detail not shown here. Equal values may be shown once. Read-outs that look alike come from different tables or passages of the source. Marks after values point to notes of the source that are not given here.
# Experiments:
# [1] = rat, in vivo
# Method: Doses of ZnCl2 were not based on each animal's body weight, but on a lower theoretically tolerable dose for a 290-gram BB Wistar rat, which would not elicit heavy metal poisoning or behavioral changes. […] A 0.1 ml volume of the ZnCl2 solution was administered locally via a single injection into the marrow space for each dose examined.
# However, animals amongst treatment groups were age and sex matched for each experiment.
# femur fractures [2] = conditions: zinc chloride 3.0 mg/kg
# Text: The fractured femora were resected at seven days post-fracture, decalcified, dehydrated, embedded in paraffin, and sectioned using standard histological techniques. Sections were stained with Masson's Trichrome (Accustain™ Trichrome Staining kit, Sigma Diagnostics, St. Louis, MO) for histological observation using an Olympus BH2-RFCA microscope (Olympus Optical Co., Ltd., Shinjuku-ku, Tokyo, Japan). Digital images were collected using a Nikon DXM1200F digital camera (Nikon, Tokyo, Japan). Cartilage, new bone, and total callus area were measured from the digital images using Image-Pro Plus software (version 5, Media Cybernetics, Inc., Silver Spring, MD). Total cartilage and new bone area were normalized to total callus area and expressed as the percent area. Two independent reviewers were used to minimize inconsistencies.
# This includes dehydration, soaking in Xylenes, and finally pre-embedding in a layer of Polymethylmethacrylate (PMMA). After embedding in pure PMMA and allowed to solidify in a hot water bath, slides were sectioned from the PMMA blocks, polished, and stained with a combination of Stevenel's blue and Van Gieson picro-fuchsin (SVG). Histological images of fracture calluses were obtained using an Olympus SZX12 upright microscope (Olympus Optical Co, LTD, Japan) connected via a CCD camera (Optronics, Goleta, California) to a personal computer and analyzed with the Bioquant software package (Biometrics, Inc, Nashville, TN). Parameters that were compared include a) callus area, b) percent calcified tissue area, and c) percent cartilage area. Limitations of this procedure include production of slides with high thicknesses, due to the difficulties associated with sectioning PMMA. This limits the number of possible sections that may be cut for staining in addition to analysis of cellular morphology, due to overlapping layers of cells.
# femur fractures [3] = tested on: femur fractures; parameters: Percent Effective Shear Modulus / Percent Effective Shear Stress: scale not given: direction of the effect not stated beside the values; conditions: for Effective Shear Modulus / Effective Shear Stress / Maximum Torque to Failure / Maximum Torsional Rigidity / Percent Effective Shear Modulus / Percent Effective Shear Stress / Percent Maximum Torque to Failure / Percent maximum torsional rigidity: no carrier, 4 weeks post-fracture; for effective shear stress, times higher than control: four weeks post-fracture
# Method: Zinc Chloride [(ZnCl2), Sigma Aldrich, St. Louis, MO] mixed with a buffer was injected into the intramedullary canal prior to fracture. The buffer consisted of sodium acetate, sodium chloride methyl hydroxybenzoate, and zinc chloride. Doses of 1.0 mg/kg and 3.0 mg/kg zinc chloride were tested and administered at a volume of 0.1mL.
# Fractured and contralateral femora were resected at three and four weeks post-fracture. Femora were cleaned of soft tissue and the intramedullary rod was removed. Samples were wrapped in saline (0.9% NaCl) soaked gauze and stored at -20 °C. Prior to testing, all femora were removed from the freezer and allowed to thaw to room temperature for three to four hours. The proximal and distal ends of the fractured and contralateral femora were embedded in ¾ inch square nuts with Field's Metal, leaving an approximate gauge length of 18 mm (Figure 2). After measuring callus, gauge length and femur dimensions, torsional testing was conducted using a servohydraulics machine (MTS Systems Corp., Eden Prairie, MN) with a 20 Nmm reaction torque cell (Interface, Scottsdale, AZ) and tested to failure at a rate of 2.0 deg/sec. The maximum torque to failure and angle to failure were determined from the force to angular displacement data.
# Maximum torque to failure and maximum torsional rigidity are considered extrinsic properties while shear modulus and maximum shear stress are considered intrinsic properties. […] Maximum torsional rigidity is a function of the maximum torque to failure, gauge length (distance of the exposed femur between the embedded proximal and distal end) and angular displacement. Maximum shear stress is a function of the maximum torque to failure, maximum radius within the mid-diaphyseal region and the polar moment of inertia. The polar moment of inertia was calculated by modeling the femur as a hollow ellipse.
# In order to compare the biomechanical parameters between different treatment groups, the data was normalized by dividing each fractured femur value by its corresponding intact, contralateral femur value (Figure 2). Normalization was used to minimize biological variability due to differences in age and weight among rats.
# Zinc chloride (ZnCl2), Sigma Aldrich, St. Louis, MO, mixed with sterile water at various doses with or without a calcium sulfate carrier, were injected into the intramedullary canal prior to fracture. Doses of ZnCl2 were not based on each animal's body weight, but on a lower theoretically tolerable dose for a 290-gram BB Wistar rat, which would not elicit heavy metal poisoning or behavioral changes. This weight is over 50 grams lower than the average weight of non-diabetic BB Wistar rats at an age of approximately 90 days (the age of investigation in this study).
# femur fractures [4] = conditions: no carrier
# Method: Under the same anesthesia as described above, the rats were positioned prone and lateral and anteroposterior (AP) radiographs of their femurs were obtained. […] Exposures were for 30 seconds at 55 kVp. Magnified radiographs were obtained of resected femurs. Qualitative analysis was performed on all radiographic sample at four weeks post-fracture. […] Treatment group averages were computed to estimate healing at 4 weeks post-fracture.
# [5] = ZnCl2 0.1 mg/kg local, normalized to intact femur
# [6] = ZnCl2 1.0 mg/kg local, normalized to intact femur
# [7] = ZnCl2 3.0 mg/kg local, normalized to intact femur, 3 mg/kg
# [8] = ZnCl2 3 mg/kg, four weeks, normalized to intact femur, 3 mg/kg
# [9] = ZnCl2 6.0 mg/kg local, normalized to intact femur
# [10] = ZnCl2 10.0 mg/kg local, normalized to intact femur
smiles,measurement,setting,value
"[Cl-].[Cl-].[Zn+2] [ZnCl2, Zinc Chloride]",% Weight gain,[1]; 0.1 mg/kg,15.3±11.5%
same,Blood Glucose 12 Hours Post-Surgery,[1]; 0.1 mg/kg,87.0±7.1 ^a mg/dl
same,% Weight gain,[1]; 1 mg/kg,11.0±9.4%
same,Blood Glucose 12 Hours Post-Surgery,[1]; 1 mg/kg,99.3±3.1 ^b mg/dl
same,% Weight gain,[1]; 3 mg/kg,6.9±11.7%
same,Blood Glucose 12 Hours Post-Surgery,[1]; 3 mg/kg,105.0±4.4 ^b mg/dl
same,% Weight gain,[1]; 6 mg/kg,4.6±2.3%
same,Blood Glucose 12 Hours Post-Surgery,[1]; 6 mg/kg,88.0±4.3 ^a mg/dl
same,% Weight gain,[1]; 10 mg/kg,4.2±2.0%
same,Blood Glucose 12 Hours Post-Surgery,[1]; 10 mg/kg,87. 7±8. 5 ^a mg/dl
same,% Bone,femur fractures [2]; 7 Day,18.92 ± 5.97 ^∗ %
same,% Cartilage,femur fractures [2]; 7 Day,4.64 ± 3.41%
same,% Bone,femur fractures [2]; 10 Day,21.31 ± 5.40%
same,% Cartilage,femur fractures [2]; 10 Day,12.79 ± 3.02%
same,% Bone,femur fractures [2]; 21 Day,24.47 ± 3.53%
same,% Cartilage,femur fractures [2]; 21 Day,11.57 ± 5.53%
same,Effective Shear Modulus,femur fractures [3]; ZnCl2 0.1 mg/kg local,1.7×10^3 ± 3.3×10^2 MPa
same,Effective Shear Stress,femur fractures [3]; ZnCl2 0.1 mg/kg local,61 ± 14 MPa
same,Maximum Torque to Failure,femur fractures [3]; ZnCl2 0.1 mg/kg local,252 ± 13 Nmm
same,Maximum Torsional Rigidity,femur fractures [3]; ZnCl2 0.1 mg/kg local,2.1×10^4 ± 4.2×10^3 Nmm^2/rad
same,Percent Effective Shear Modulus,femur fractures [3]; [5],34 ± 4%
same,Percent Effective Shear Stress,femur fractures [3]; [5],33 ± 14%
same,Percent Maximum Torque to Failure,femur fractures [3]; [5],57 ± 12%
same,Percent maximum torsional rigidity,femur fractures [3]; [5],87 ± 14%
same,Effective Shear Modulus,femur fractures [3]; ZnCl2 1.0 mg/kg local,9.7×10^2 ± 3.6×10^2 MPa
same,Effective Shear Stress,femur fractures [3]; ZnCl2 1.0 mg/kg local,44 ± 15 MPa
same,Maximum Torque to Failure,femur fractures [3]; ZnCl2 1.0 mg/kg local,281 ± 86 Nmm
same,Maximum Torsional Rigidity,femur fractures [3]; ZnCl2 1.0 mg/kg local,2.2×10^4 ± 2.7×10^3 Nmm^2/rad
same,Percent Effective Shear Modulus,femur fractures [3]; [6],32 ± 15%
same,Percent Effective Shear Stress,femur fractures [3]; [6],18 ± 8%
same,Percent Maximum Torque to Failure,femur fractures [3]; [6],65 ± 29%
same,Percent maximum torsional rigidity,femur fractures [3]; [6],55 ± 14%
same,"effective shear stress, times higher than control",femur fractures [3]; ZnCl2 1.0 mg/kg,1.6 x
same,Effective Shear Modulus,femur fractures [3]; ZnCl2 3.0 mg/kg local,1.3×10^3 ± 6.4×10^2 MPa
same,Effective Shear Stress,femur fractures [3]; ZnCl2 3.0 mg/kg local,55 ± 21^∗ MPa
same,Maximum Torque to Failure,femur fractures [3]; ZnCl2 3.0 mg/kg local,369 ± 74 Nmm
same,Maximum Torsional Rigidity,femur fractures [3]; ZnCl2 3.0 mg/kg local,3.1×10^4 ± 1.1×10^4 Nmm^2/rad
same,Percent Effective Shear Stress,"femur fractures [3]; ZnCl2 3.0 mg/kg local, normalized to intact femur",27 ± 17%
same,Percent Effective Shear Modulus,femur fractures [3]; [7],39.0% and 36 ± 10^∗ Percent
same,Percent Maximum Torque to Failure,femur fractures [3]; [7],82.0% and 82 ± 25^∗ Percent
same,Percent maximum torsional rigidity,femur fractures [3]; [7],97.0% and 97 ± 55^∗ Percent
same,"effective shear stress, times higher than control",femur fractures [3]; ZnCl2 3.0 mg/kg,2.2 x
same,"percent effective shear modulus, times higher than control group",femur fractures [3]; [8],9.0 x and 8.0 x
same,"percent maximum torque to failure, times higher than control group",femur fractures [3]; [8],2.04 x and 2.0 x
same,"percent torsional rigidity, times higher than control group",femur fractures [3]; [8],3.85 x and 3.8 x
same,Effective Shear Modulus,femur fractures [3]; ZnCl2 6.0 mg/kg local,1.1×10^3 ± 7.5×10^2 MPa
same,Effective Shear Stress,femur fractures [3]; ZnCl2 6.0 mg/kg local,32 ± 25^∗ MPa
same,Maximum Torque to Failure,femur fractures [3]; ZnCl2 6.0 mg/kg local,276 ± 190 Nmm
same,Maximum Torsional Rigidity,femur fractures [3]; ZnCl2 6.0 mg/kg local,2.9×10^4 ± 1.6×10^4 Nmm^2/rad
same,Percent Effective Shear Modulus,femur fractures [3]; [9],18 ± 12%
same,Percent Effective Shear Stress,femur fractures [3]; [9],15 ± 10%
same,Percent Maximum Torque to Failure,femur fractures [3]; [9],38 ± 20%
same,Percent maximum torsional rigidity,femur fractures [3]; [9],62 ± 35%
same,"Percent shear modulus, times greater than untreated saline group","femur fractures [3]; ZnCl2 10.0 mg/kg (high dose), four weeks, normalized to intact femur",8.8 times
same,Effective Shear Modulus,femur fractures [3]; ZnCl2 10.0 mg/kg local,3.0×10^3 ± 1.9×10^3∗ MPa
same,Effective Shear Stress,femur fractures [3]; ZnCl2 10.0 mg/kg local,62 ± 30 MPa
same,Maximum Torque to Failure,femur fractures [3]; ZnCl2 10.0 mg/kg local,254 ± 36 Nmm
same,Maximum Torsional Rigidity,femur fractures [3]; ZnCl2 10.0 mg/kg local,3.6×10^4 ± 2.5×10^4 Nmm^2/rad
same,Percent Effective Shear Stress,femur fractures [3]; [10],27 ±11%
same,Percent Maximum Torque to Failure,femur fractures [3]; [10],41 ± 8%
same,Percent maximum torsional rigidity,femur fractures [3]; [10],73 ± 44%
same,Percent Effective Shear Modulus,"femur fractures [3]; ZnCl2 10.0 mg/kg local, normalized to intact femur, 10 mg/kg",36.0% and 39 ± 23^∗ Percent
same,time in which fracture healing resolved,"femur fractures [3]; ZnCl2 applied directly to the fracture site, instead of average eight to ten weeks in standard rat femur fracture model",four to five weeks
same,"Radiographic scoring, 4 Weeks Post-Fracture (# of cortices bridged)",femur fractures [4]; ZnCl2 1.0 mg/kg local,3.0 ± 0.6 (n=3)
same,"Radiographic scoring, 4 Weeks Post-Fracture (# of cortices bridged)",femur fractures [4]; ZnCl2 3.0 mg/kg local,3.3 ± 0.6^∗ (n=3)
